Assay results from US9453031B2, “Chemical entities” (Fundación Centro Nacional de Investigaciones Oncológicas …, priority 2013, dated 2016).

Assays:
ATR = ATR (Homo sapiens (Human), UniProt Q13535); assay: Cellular ATR inhibition, western blot of CHK1(S345) phosphorylation in hydroxyurea treated cells; format: cell-based; details: HT29 cells
Protocol: In addition to the selective system described above, Example compounds presented here were screened for their ability to inhibit intracellular ATR using a western blot assay to detect phosphorylation of the ATR substrate CHK1(S345) in hydroxyurea treated cells. HT29 cells are plated at 500,000 cells per well in 6-well plates in RPMI media (Sigma R6504) supplemented with 10% foetal bovine serum (Sigma F7524), Penicillin/Streptomycin solution diluted 1:100 (Gibco 15070-063), and fungizone (Gibco, 15290-018), and allowed to adhere overnight at 37° C. in 5% CO2. Compounds are then added to the cell media from a final concentration of 10 μM in 3-fold serial dilutions and the cells are incubated at 37° C. in 5% CO2. After 15 min, hydroxyurea (Sigma H8627) is added to a final concentration of 2.5 mM. After 30 min of treatment with hydroxyurea, the cells are washed in PBS, lysed adding 50 μl of in protein lysis buffer (50 mM Tris pH 7.5, 150 mM NaCl, 1% IGEPAL CO-630 (Sigma, Ref. 542334-100G-A), Phospho Stop (Roche, Ref. 04906837001) and Complete Mini EDTA free (Roche, Ref. 11836170001)). The protein content of the lysates was determined by the modified method of Bradford (Sigma, Ref. B6916). The proteins were resolved by SDS-PAGE and transferred to nitrocellulose membrane (VWR International Eurolab, Ref. 732-4007). The membranes were incubated overnight at 4° C. with antibodies specific for total CHK1 (Santa Cruz Biotechnology, sc-8404), phosphoserine-345 CHK1 (Cell Signaling Technology #2348) they were washed and then incubated with IRDye800 conjugated anti-mouse (Pierce/Cultek, 35521) and Alexa Fluor 680 goat anti-rabbit IgG secondary antibodies (Invitrogen, A21076). The bands were visualized and quantified using an Odyssey infrared imaging system (Li-Cor Biosciences). The percentage of phosphorylated CHK1 vs total CHK1 in cells treated with hydroxyurea was taken as hundred percent of phosphorylation. The percentage of CHK1 phosphorylation is finally plotted against concentration for each compound and EC50s for intracellular ATR inhibition are calculated using ActivityBase from IDBS.

mTOR = mTOR (Homo sapiens (Human), UniProt P42345); assay: mTOR activity assay (LanthaScreen); format: biochemical
Protocol: The enzymatic mTOR activity was measured using a LanthaScreen™ kinase activity assay (Invitrogen). The enzyme was purchased from Invitrogen (PV4754), as well as the GFP-labelled substrate (4EBP1-GFP; PV4759) and the Tb-antip4EBP1(pThr46) antibody (PV4757). The assay was performed in 50 Mm HEPES buffer, pH 7.5, containing 1.5 mM MnCl2, 10 mM MgCl2, 1 mM EGTA, 2.5 mM DTT and 0.01% Tween-20. The concentration of the assay components were the following: 0.24 nM mTOR kinase, 400 nM 4EBP1-GFP, […] and serial dilutions of the compound (inhibitor) to be evaluated. After 1 h incubation at room temperature, 20 mM EDTA was used to stop the reaction and terbium-labelled antibody (4 nM) added to detect phosphorylated product. The antibody associates with the phosphorylated product resulting in an increased TR-FRET value. The TR-FRET value (a dimensionless number) was calculated as the ratio of the acceptor signal (GFP, emission at 520 nm) to the donor signal (terbium, emission at 495 nm).

DNA-PK = DNA-PK (Homo sapiens (Human), UniProt P78527); assay: DNAPK activity assay (ADP Hunter Plus); format: biochemical; details: 75 μM ATP
Protocol: The kinase activity was measured by using the commercial ADP Hunter™ Plus assay available from DiscoveRx (#90-0083), which is a homogeneous assay to measure the accumulation of ADP, a universal product of kinase activity. The enzyme, DNA-PK was purchased from Promega (#V5811). The assay was done following the manufacturer recommendations with slight modifications: Mainly the kinase buffer was replace by 15 mM HEPES, pH 7.5, 10 mM MgCl2, 20 mM NaCl, 1 mM EGTA, 0.1 mg/mL BGG, 0.02% Tween 20. The DNA-PK was assayed in a titration experiment to determine the optimal protein concentration for the inhibition assay. To calculate the […] of the Compounds, serial 1:3 dilutions of the compounds were added to the enzyme at a fixed concentration (2 U/μL). The enzyme was preincubated with the inhibitor and 200 μM DNA substrate and then ATP was added to a final 75 μM concentration. Reaction was carried out for 1 hour at 37° C. Reagent A and B were sequentially added to the wells and plates were incubated for 30 min at RT. Fluorescence counts were read in a EnVision instrument (Perkin Elmer) with the recommended settings (550 and 590 nm as excitation and emission wavelengths, respectively).

PI3K (p110α/p85α) = PI3K (p110α/p85α) (Homo sapiens (Human), UniProt P42336); assay: PI3K alpha activity assay (ADP Hunter Plus); format: biochemical; details: 50 μM ATP, 30 μM PIP2; read-out: PI3Kα IC50
Protocol: The kinase activity was measured by using the commercial ADP Hunter™ Plus assay available from DiscoveRx (#33-016), which is a homogeneous assay to measure the accumulation of ADP, a universal product of kinase activity. […] The reaction was carried out for 1 hour at 25° C. Reagent A and B were sequentially added to the wells and plates were incubated for 30 min at 37° C. Fluorescence counts were read in a Victor instrument (Perkin Elmer) with the recommended settings (544 and 580 nm as excitation and emission wavelengths, respectively).

ATR, sequence (Q13535 whole entry): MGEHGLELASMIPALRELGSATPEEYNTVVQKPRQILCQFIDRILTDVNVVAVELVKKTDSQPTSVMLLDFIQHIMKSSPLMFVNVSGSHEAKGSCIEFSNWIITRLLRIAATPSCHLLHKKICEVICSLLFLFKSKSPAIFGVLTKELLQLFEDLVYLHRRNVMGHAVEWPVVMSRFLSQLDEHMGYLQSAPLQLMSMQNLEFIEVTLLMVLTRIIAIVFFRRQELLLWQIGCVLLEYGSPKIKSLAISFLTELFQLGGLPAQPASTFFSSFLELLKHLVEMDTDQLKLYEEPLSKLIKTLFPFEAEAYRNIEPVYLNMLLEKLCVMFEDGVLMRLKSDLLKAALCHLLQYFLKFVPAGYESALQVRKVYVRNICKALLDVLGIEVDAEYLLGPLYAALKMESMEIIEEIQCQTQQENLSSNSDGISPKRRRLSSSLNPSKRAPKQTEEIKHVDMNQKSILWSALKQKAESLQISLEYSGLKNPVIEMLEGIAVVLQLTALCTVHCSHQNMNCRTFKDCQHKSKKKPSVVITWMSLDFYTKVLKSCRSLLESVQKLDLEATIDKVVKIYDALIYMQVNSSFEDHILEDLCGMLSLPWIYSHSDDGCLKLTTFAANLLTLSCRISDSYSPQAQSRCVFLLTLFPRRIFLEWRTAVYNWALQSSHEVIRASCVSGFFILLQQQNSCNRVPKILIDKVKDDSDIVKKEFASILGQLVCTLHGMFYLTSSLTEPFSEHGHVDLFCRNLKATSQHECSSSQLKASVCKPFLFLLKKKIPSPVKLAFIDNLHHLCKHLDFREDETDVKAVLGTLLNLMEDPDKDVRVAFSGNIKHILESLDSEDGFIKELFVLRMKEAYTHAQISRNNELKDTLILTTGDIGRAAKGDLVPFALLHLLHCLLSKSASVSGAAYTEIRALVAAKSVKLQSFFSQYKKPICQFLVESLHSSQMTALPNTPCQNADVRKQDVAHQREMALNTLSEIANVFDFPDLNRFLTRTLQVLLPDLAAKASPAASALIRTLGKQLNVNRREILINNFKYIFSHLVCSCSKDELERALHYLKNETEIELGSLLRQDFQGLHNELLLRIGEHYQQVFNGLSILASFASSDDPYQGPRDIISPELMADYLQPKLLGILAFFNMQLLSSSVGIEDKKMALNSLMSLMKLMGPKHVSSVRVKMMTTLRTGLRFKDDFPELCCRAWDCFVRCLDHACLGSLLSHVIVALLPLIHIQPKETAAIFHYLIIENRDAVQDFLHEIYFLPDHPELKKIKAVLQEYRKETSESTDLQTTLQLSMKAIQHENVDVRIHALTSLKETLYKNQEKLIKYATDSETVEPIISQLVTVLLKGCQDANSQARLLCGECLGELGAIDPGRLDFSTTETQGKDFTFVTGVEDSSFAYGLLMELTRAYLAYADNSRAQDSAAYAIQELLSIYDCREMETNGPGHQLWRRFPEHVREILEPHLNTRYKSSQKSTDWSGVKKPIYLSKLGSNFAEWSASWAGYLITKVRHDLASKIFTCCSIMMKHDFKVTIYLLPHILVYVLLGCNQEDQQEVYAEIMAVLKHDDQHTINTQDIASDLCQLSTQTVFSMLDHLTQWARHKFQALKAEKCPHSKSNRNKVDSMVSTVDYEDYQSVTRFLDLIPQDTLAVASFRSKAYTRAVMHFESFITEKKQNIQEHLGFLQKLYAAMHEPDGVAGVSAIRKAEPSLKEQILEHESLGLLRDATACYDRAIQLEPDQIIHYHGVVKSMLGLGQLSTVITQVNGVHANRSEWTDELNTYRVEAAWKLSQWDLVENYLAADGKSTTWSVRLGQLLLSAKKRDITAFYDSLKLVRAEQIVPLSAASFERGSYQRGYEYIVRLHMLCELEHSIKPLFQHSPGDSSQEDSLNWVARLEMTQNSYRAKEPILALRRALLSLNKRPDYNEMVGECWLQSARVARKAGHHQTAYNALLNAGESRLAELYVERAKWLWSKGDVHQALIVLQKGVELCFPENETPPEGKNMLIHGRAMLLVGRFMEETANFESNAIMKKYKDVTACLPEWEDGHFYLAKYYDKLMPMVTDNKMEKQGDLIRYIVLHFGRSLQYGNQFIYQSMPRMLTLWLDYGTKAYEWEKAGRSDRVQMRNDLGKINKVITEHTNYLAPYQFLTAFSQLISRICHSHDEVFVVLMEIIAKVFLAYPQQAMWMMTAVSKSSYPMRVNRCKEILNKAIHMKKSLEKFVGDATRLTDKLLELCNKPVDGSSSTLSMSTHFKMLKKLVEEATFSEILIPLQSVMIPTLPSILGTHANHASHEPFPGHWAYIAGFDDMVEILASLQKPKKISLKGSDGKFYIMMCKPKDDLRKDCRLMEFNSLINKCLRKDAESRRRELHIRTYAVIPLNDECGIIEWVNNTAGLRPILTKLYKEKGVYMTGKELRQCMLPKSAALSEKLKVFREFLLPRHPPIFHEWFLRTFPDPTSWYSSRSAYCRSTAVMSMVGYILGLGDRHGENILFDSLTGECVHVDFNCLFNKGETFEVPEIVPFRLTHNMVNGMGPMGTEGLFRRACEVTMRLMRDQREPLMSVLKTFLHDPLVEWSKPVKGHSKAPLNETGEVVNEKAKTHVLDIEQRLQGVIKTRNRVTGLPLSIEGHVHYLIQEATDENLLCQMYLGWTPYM
mTOR, sequence (P42345 1360-2549): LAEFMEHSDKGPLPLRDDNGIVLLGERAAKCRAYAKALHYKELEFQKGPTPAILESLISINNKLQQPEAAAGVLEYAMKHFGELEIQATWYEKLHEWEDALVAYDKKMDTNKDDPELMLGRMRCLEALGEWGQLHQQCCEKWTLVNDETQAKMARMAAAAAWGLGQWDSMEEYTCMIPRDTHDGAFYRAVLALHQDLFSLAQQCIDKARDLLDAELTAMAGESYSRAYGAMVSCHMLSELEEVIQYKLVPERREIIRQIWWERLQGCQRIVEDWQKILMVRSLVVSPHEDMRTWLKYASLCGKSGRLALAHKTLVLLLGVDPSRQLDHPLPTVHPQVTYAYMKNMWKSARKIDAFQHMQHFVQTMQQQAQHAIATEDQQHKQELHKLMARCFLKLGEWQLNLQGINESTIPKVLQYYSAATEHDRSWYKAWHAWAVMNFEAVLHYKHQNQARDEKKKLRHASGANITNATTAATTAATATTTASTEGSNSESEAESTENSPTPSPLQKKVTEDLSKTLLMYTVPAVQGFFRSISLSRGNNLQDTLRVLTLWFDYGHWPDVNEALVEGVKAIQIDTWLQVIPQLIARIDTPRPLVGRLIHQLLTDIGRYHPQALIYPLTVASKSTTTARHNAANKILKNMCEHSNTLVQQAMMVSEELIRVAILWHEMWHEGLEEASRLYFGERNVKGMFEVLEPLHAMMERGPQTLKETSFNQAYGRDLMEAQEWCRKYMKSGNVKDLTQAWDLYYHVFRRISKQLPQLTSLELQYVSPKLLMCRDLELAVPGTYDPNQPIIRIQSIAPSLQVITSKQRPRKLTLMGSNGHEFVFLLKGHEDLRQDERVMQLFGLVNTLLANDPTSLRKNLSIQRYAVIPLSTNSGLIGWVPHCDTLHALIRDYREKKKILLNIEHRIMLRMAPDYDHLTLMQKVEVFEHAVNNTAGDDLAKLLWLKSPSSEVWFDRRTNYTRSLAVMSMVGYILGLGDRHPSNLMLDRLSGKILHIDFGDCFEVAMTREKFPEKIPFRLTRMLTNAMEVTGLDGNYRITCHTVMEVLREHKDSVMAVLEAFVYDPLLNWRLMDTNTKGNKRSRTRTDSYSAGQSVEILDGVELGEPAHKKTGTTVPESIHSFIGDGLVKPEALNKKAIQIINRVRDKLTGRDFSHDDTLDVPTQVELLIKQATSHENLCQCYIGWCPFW

SMILES | EC50 (ATR; hydroxyurea 2.5 mM) [µM] | further results
CC(C)(c1nc(-c2cccc3[nH]ccc23)nc2c1OCC1COCCN21)S(=O)(=O)C1CC1 (centres unmarked) [Example 4] | < 0.1 | –
CS(=O)(=O)C1(c2nc(-c3cccc4[nH]ccc34)nc3c2OC[C@@H]2COCCN32)CC1 [Example 6] | 0.1 to 1 | IC50 (mTOR): 0.558 µM; IC50 (DNA-PK): 4.52 µM; IC50 (PI3K (p110α/p85α)): 4.5 µM
CS(=O)(=O)Cc1nc(-c2cccc3[nH]ccc23)nc2c1OCC1COCCN21 (centres unmarked) [Example 7] | 0.1 to 1 | –
CS(=O)(=O)C1(c2nc(-c3cncc4[nH]ccc34)nc3c2OCC2COCCN32)CCOCC1 (centres unmarked) [Example 9] | 0.1 to 1 | –
CNc1nc2ccccc2n1-c1nc2c(c(C3(S(C)(=O)=O)CCOCC3)n1)OCC1COCCN21 (centres unmarked) [Example 12] | 0.1 to 1 | –
CS(=O)(=O)C1(c2nc(-c3c(F)ccc4[nH]ccc34)nc3c2OCC2COCCN32)CCOCC1 (centres unmarked) [Example 13] | 0.1 to 1 | –
CC(C)(c1nc(-c2c(F)ccc3[nH]ccc23)nc2c1OCC1COCCN21)S(C)(=O)=O (centres unmarked) [Example 14] | 0.1 to 1 | –
CC(C)(c1nc(-c2cccc3[nH]ccc23)nc2c1OC[C@H]1COCCN21)S(C)(=O)=O [Example 15] | 0.1 to 1 | IC50 (mTOR): 0.851 µM; IC50 (DNA-PK): 2.86 µM; IC50 (PI3K (p110α/p85α)): 1.1 µM
CC(C)(c1nc(-c2ccnc3[nH]ccc23)nc2c1OCC1COCCN21)S(C)(=O)=O (centres unmarked) [Example 16] | 0.1 to 1 | –
CS(=O)(=O)C1(c2nc(-c3cc(F)cc4[nH]ccc34)nc3c2OCC2COCCN32)CCOCC1 (centres unmarked) [Example 17] | < 0.1 | –
CS(=O)(=O)C1(c2nc(-c3ccnc4[nH]ccc34)nc3c2OCC2COCCN32)CCOCC1 (centres unmarked) [Example 18] | < 0.1 | –
COc1cc(-c2nc3c(c(C4(S(C)(=O)=O)CCOCC4)n2)OCC2COCCN32)c2cc[nH]c2c1 (centres unmarked) [Example 19] | < 0.1 | –
Cc1cc2c(-c3nc4c(c(C5(S(C)(=O)=O)CCOCC5)n3)OCC3COCCN43)cccc2[nH]1 (centres unmarked) [Example 20] | 0.1 to 1 | –
CC(C)(c1nc(-c2cccc3[nH]ncc23)nc2c1OC[C@H]1COCCN21)S(C)(=O)=O [Example 21] | > 1 | –
CS(=O)(=O)C1(c2nc(-c3cccc4[nH]ccc34)nc3c2OCC[C@@H]2COCCN32)CCOCC1 [Example 22] | 0.1 to 1 | –
CC(C)(c1nc(-c2cccc3[nH]ccc23)nc2c1OCC[C@H]1COCCN21)S(C)(=O)=O [Example 24] | 0.1 to 1 | –
CC(C)(c1nc(-c2cccc3[nH]ccc23)nc2c1OCC[C@@H]1COCCN21)S(C)(=O)=O [Example 25] | 0.1 to 1 | IC50 (mTOR): 0.582 µM; IC50 (PI3K (p110α/p85α)): 23.4 µM
CS(=O)(=O)C1(c2nc(-c3cccc4[nH]ccc34)nc3c2OCC2COCCN32)CC1 (centres unmarked) [Example 27] | 0.1 to 1 | –
CNc1nc2ccccc2n1-c1nc2c(c(C(C)(C)[S@TB1](C)(=O)=O)n1)OCCC1COCCN21 (centres unmarked) [Example 31] | < 0.1 | –
CNc1nc2ccccc2n1-c1nc2c(c(C3(S(C)(=O)=O)CCOCC3)n1)OCCC1COCCN21 (centres unmarked) [Example 32] | > 1 | –
C[S@TB17](=O)(=O)C1(c2nc(-c3cc(F)cc4[nH]ccc34)nc3c2OCCC2COCCN32)CCOCC1 (centres unmarked) [Example 33] | 0.1 to 1 | –
COc1cc(-c2nc3c(c(C4([S@TB1](C)(=O)=O)CCOCC4)n2)OCCC2COCCN32)c2cc[nH]c2c1 (centres unmarked) [Example 34] | 0.1 to 1 | –

SMILES | EC50 (ATR; hydroxyurea 2.5 mM) [µM] | further results
C[S@TB17](=O)(=O)Nc1nc(-c2cccc3[nH]ccc23)nc2c1OCC1COCCN21 (centres unmarked) [Example 35] | > 1 | –
CN1CCC(c2nc(-c3cccc4[nH]ccc34)nc3c2OCC2COCCN32)(S(C)(=O)=O)CC1 (centres unmarked) [Example 36] | > 1 | –
COc1ccc(-c2nc3c(c(C4(S(C)(=O)=O)CCOCC4)n2)OCC2COCCN32)c2cc[nH]c12 (centres unmarked) [Example 37] | 0.1 to 1 | –
CC(C)(O)c1nc(-c2cccc3[nH]ccc23)nc2c1OCC1COCCN21 (centres unmarked) [Example 38] | 0.1 to 1 | –
CNc1nc2ccccc2n1-c1nc2c(c(C(C)(C)O)n1)OCC1COCCN21 (centres unmarked) [Example 39] | 0.1 to 1 | –
CC(C)(C#N)c1nc(-c2cccc3[nH]ccc23)nc2c1OCC1COCCN21 (centres unmarked) [Example 40] | 0.1 to 1 | –
CC1(c2nc(-c3cccc4[nH]ccc34)nc3c2OCC2COCCN32)CCCS1(=O)=O (centres unmarked) [Example 41] | 0.1 to 1 | –
c1cc(-c2nc(-c3cccc4[nH]ccc34)c3c(n2)N2CCOCC2CO3)c2cc[nH]c2c1 (centres unmarked) [Example 42] | 0.1 to 1 | –
CS(=O)(=O)c1cccc(-c2nc(-c3cccc4[nH]ccc34)nc3c2OCC2COCCN32)c1 (centres unmarked) [Example 43] | 0.1 to 1 | –
CC(C)(O)c1nc(-c2cc(F)cc3[nH]ccc23)nc2c1OC[C@@H]1COCCN21 [Example 45] | 0.1 to 1 | –
CC(C)Nc1nc2ccccc2n1-c1nc2c(c(C(C)(C)S(C)(=O)=O)n1)OC[C@@H]1COCCN21 [Example 63] | < 0.1 | –
CCNc1nc2ccccc2n1-c1nc2c(c(C(C)(C)S(C)(=O)=O)n1)OC[C@@H]1COCCN21 [Example 64] | 0.1 to 1 | –
CCCNc1nc2ccccc2n1-c1nc2c(c(C(C)(C)S(C)(=O)=O)n1)OC[C@@H]1COCCN21 [Example 65] | < 0.1 | –
CS(=O)(=O)C1(c2nc(-c3cccc4[nH]ccc34)nc3c2OC[C@@H]2COCCN32)CCC1 [Example 67] | < 0.1 | –
CCOC(=O)N1CCC(c2nc(-c3cccc4[nH]ccc34)nc3c2OC[C@@H]2COCCN32)(S(C)(=O)=O)CC1 [Example 68] | 0.1 to 1 | –
CS(=O)(=O)C1(c2nc(-c3cccc4[nH]ccc34)nc3c2OC[C@@H]2COCCN32)CCNCC1 [Example 69] | 0.1 to 1 | –
CS(=O)(=O)C1(c2nc(-c3ccc(F)c4[nH]ccc34)nc3c2OC[C@@H]2COCCN32)CCC1 [Example 76] | > 1 | IC50 (PI3K (p110α/p85α)): 50 µM
COc1cc(-c2nc3c(c(C4(S(C)(=O)=O)CCC4)n2)OC[C@@H]2COCCN32)c2cc[nH]c2c1 [Example 78] | < 0.1 | IC50 (mTOR): 0.047 µM; IC50 (PI3K (p110α/p85α)): 4.49 µM
CN(C)c1nc2ccccc2n1-c1nc2c(c(C(C)(C)S(C)(=O)=O)n1)OC[C@@H]1COCCN21 [Example 79] | 0.1 to 1 | IC50 (PI3K (p110α/p85α)): 28.6 µM
CNc1nc2cc(Cl)ccc2n1-c1nc2c(c(C3(S(C)(=O)=O)CCC3)n1)OC[C@@H]1COCCN21 [Example 94] | > 1 | –
CNc1nc2ccc(Cl)cc2n1-c1nc2c(c(C3(S(C)(=O)=O)CCC3)n1)OC[C@@H]1COCCN21 [Example 95] | > 1 | –
CNc1nc2cc(C#N)ccc2n1-c1nc2c(c(C(C)(C)S(C)(=O)=O)n1)OC[C@@H]1COCCN21 [Example 113] | – | EC50 (ATR; hydroxyurea […]): > 1 µM
